Assay results reported in patent US10226448B2, “3-(1H-pyrrolo[3,2-C]pyridin-2-yl)-1H-pyrazolo[3,4-B]pyridines and therapeutic uses thereof” (Samumed, LLC, priority 2015, dated 2019).

Columns and labels:
Format in all cases: cell-based
[1] = tested on: SW480 colon cancer cells; assay: Cell viability assay (CellTiter-Blue) in SW480 colon cancer cells; settings: Homo sapiens; for EC50: 96 h, SW480 cell viability, four days, CellTiter-Blue; for inhibition at 10 µM: SW480, read-out: percent inhibition at 10 μM
Protocol: Representative compounds were screened using the following assay procedure to assess the effect on cell viability as described below.
Approximately 2×10^3 SW480 colon cancer cells were seeded into each well and allowed to incubate in the presence or absence of compound for four days at 37° C./5% CO2. Eight replicates of DMSO-treated cells served as controls and cells treated with compound were performed in duplicate.
After incubation, 20 μL of CellTiter-Blue (Promega) was added to each well allowed to incubate for approximately 3 hours. This reagent was a buffered solution which contains resazurin, metabolically active cells were able to reduce rezarurin (blue) into resorufin (pink) which was highly fluorescent. This measured fluorescence was used as a readout for cell viability.

[2] = tested on: LL29 cells (primary human fibroblasts derived from IPF patients), α-smooth muscle actin; assay: Inhibition of the fibrotic process: αSMA staining in TGF-β1 treated primary human fibroblasts from IPF patients (LL29 cells); settings: Fibroblast; for EC50: 96 h, LL29 cells, TGF-β1 20 ng/mL, 4 days, % αSMA positive cells; for inhibition at 10 µM: read-out: percent inhibition at 10 μM
Protocol: Representative compounds were screened using primary human fibroblasts (derived from IPF patients) treated with TGF-β1 to determine their ability to inhibit the fibrotic process.
LL29 cells are plated at 1,500 cells/well in 80 μL/well F12 medium supplemented with 1% Fetal Bovine Serum. […] Wells treated with TGF-β1 and containing DMSO were used as controls. […] Following incubation for 4 days, SYTOX green nucleic acid stain (Life Technologies [Thermo Fisher Scientific]) was added to the wells at a final concentration of 1 μM and incubated at room temperature for 30 min.

[3] = tested on: Wnt activity (Sp5-Luc reporter, TCF/LEF binding sites) in SW480 colon carcinoma cells; assay: Wnt activity screening assay: Sp5-Luc reporter gene assay in SW480 cells; settings: Homo sapiens; for EC50: Sp5-Luc reporter, SW480 cells, overnight incubation; for inhibition at 10 µM: SW480, read-out: percent inhibition at 10 μM
Text: The screening assay for Wnt activity is described as follows. Reporter cell lines can be generated by stably transducing cancer cell lines (e.g., colon cancer) or primary cells (e.g., IEC-6 intestinal cells) with a lentiviral construct that includes a Wnt-responsive promoter driving expression of the firefly luciferase gene.
SW480 colon carcinoma cells were transduced with a lentiviral vector expressing luciferase with a human Sp5 promoter consisting of a sequence of eight TCF/LEF binding sites. SW480 cells stably expressing the Sp5-Luc reporter gene and a hygromycin resistance gene were selected by treatment with 150 μg/mL of hygromycin for 7 days. These stably transduced SW480 cells were expanded in cell culture and used for all further screening activities. […] For Sp5-Luc reporter gene assays, the cells were plated at 4,000 cells/well in 384-well plates with medium containing 1% fetal bovine serum and incubated overnight at 37° C. and 5% CO2. Following incubation, 20 μl of BrightGlo luminescence reagent (Promega) was added to each well of the 384-well assay plates. The plates were placed on an orbital shaker for 2 min and then luminescence was quantified using the Envision (Perkin Elmer) plate reader. Readings were normalized to DMSO only treated cells, and normalized activities were utilized for EC50 calculations using the dose-response log (inhibitor) vs. response variable slope (four parameters) nonlinear regression feature available in GraphPad Prism 5.0 (or Dotmatics).

[4] = tested on: primary human mesenchymal stem cells (hMSCs); assay: Induction of chondrogenesis in primary human mesenchymal stem cells (chondrogenic nodules, Rhodamine B / Nile Red); settings: 6 days; for Emax: relative to TGF-β3 (10 ng/mL) positive control, read-out: Max. Activity as % TGF-β3 activity; for EC50: concentration required to induce 50% levels of chondrogenesis vs TGF-β3, read-out: Conc (nM) of 50% TGF-β3 activity
Text: Representative compounds were screened using primary human mesenchymal stem cells (hMSCs) to determine their ability to induce chondrogenesis (process by which cartilage is developed).
Human Mesenchymal Stem Cell Culture: Primary human mesenchymal stem cells (hMSCs) were purchased from Lonza (Walkersville, Md.) and expanded in Mesenchymal Stem Cell Growth Media (Lonza). Cells between passage 3 and 6 were used for the experiments.
To image chondrogenic nodules, the cells were fixed using 4% formaldehyde (Electron Microscopy Sciences), and stained with 2 μg/mL Rhodamine B (Sigma-Aldrich) and 20 μM Nile Red (Sigma-Aldrich) [Johnson K., et. al, A Stem Cell-Based Approach to Cartilage Repair, Science, (2012). […] Number of nodules in each well was normalized to the average of 3 DMSO treated wells on the same plate using Excel (Microsoft Inc.). The normalized averages (fold change over DMSO) of 3 replicate wells for each compound concentration were calculated. Due to solubility limitations of some of the compounds, curve fitting was incomplete leading to inaccurate EC50 determinations.
Using TGF-β3 as a positive control, the concentration of representative compounds required to induce 50% levels of chondrogenesis is reported. In addition, the maximum activity of each compound and the respective dose that each compound reached maximum chondrogenesis activity is reported.

[5] = tested on: IL-6 in THP-1 cells; assay: IL-6 inhibition in LPS-stimulated THP-1 human monocyte cells (HTRF); settings: for EC50: IL-6 inhibition, LPS-stimulated THP-1 cells, HTRF, 10-point dose-response starting from 10 μM; for inhibition at 10 µM: THP-1, read-out: percentage in parentheses beside EC50 >10
Protocol: Compound Screening: THP-1 cells were cultured in basal media with 1% FBS for 24 hours before the start of the assay. […] THP-1 cells were plated at 5000 cells/well in the 384-well plates and incubated at 37° C. for 2 h. 500 ng/mL of LPS was added after 2 hours and cells were incubated for another 22 hours at 37° C. Plates were spun in a centrifuge for 1 minute at […] and a mixture of anti-IL6 XL665, and anti-IL6 Cryptate diluted in reconstitution buffer (Cisbio Inc.) was added to each well. Following incubation for 3 hrs at room temperature, Homogeneous Time-Resolved Fluorescence (HTRF) was measured using the Envision (Perkin Elmer) at 665 nm and […]. The ratio of fluorescence at 665 nm to 620 nm was used as a readout for IL6 quantification. All samples were processed in duplicate. Readings were normalized to DMSO treated cells and normalized activities were utilized for EC50 calculations using the dose-response log (inhibitor) vs. response variable slope (four parameters) nonlinear regression feature available in GraphPad Prism 5.0 (or Dotmatics).

CC(C)C(=O)Nc1cncc(-c2cnc3[nH]nc(-c4cc5c(-c6cccc(F)c6)nccc5[nH]4)c3c2)c1 [Compound 9, N-(5-(3-(4-(3-Fluorophenyl)-1H-pyrrolo[3,2-c]pyridin-2-yl)-1H-pyrazolo[3,4-b]pyridin-5-yl)pyridin-3-yl)isobutyramide] was tested, and the EC50 [1] was 770 nM, the EC50 [2] was 622 nM and the EC50 [3] was 575 nM. The Emax [4] was 29% and the EC50 [5] was 206 nM.

c1cc2[nH]c(-c3n[nH]c4ncc(-c5cncc(CN6CCCCC6)c5)cc34)cc2c(N2CCCCC2)n1 [Compound 183, 3-(4-(Piperidin-1-yl)-1H-pyrrolo[3,2-c]pyridin-2-yl)-5-(5-(piperidin-1-ylmethyl)pyridin-3-yl)-1H-pyrazolo[3,4-b]pyridine] gave an EC50 [1] of 827 nM, an EC50 [2] of 1220 nM and an EC50 [3] of 3850 nM. For the same compound, the EC50 [4] was 900 nM, the Emax [4] was 62% and the EC50 [5] was 4800 nM.

CC(C)Nc1cncc(-c2cnc3[nH]nc(-c4cc5c(-c6ccccc6F)nccc5[nH]4)c3c2)c1 [Compound 68, 5-(3-(4-(2-Fluorophenyl)-1H-pyrrolo[3,2-c]pyridin-2-yl)-1H-pyrazolo[3,4-b]pyridin-5-yl)-N-isopropylpyridin-3-amine] was tested, and the EC50 [1] was 959 nM, the EC50 [2] was 1890 nM and the EC50 [3] was 435 nM. For the same compound, the EC50 [4] was 10 nM, the Emax [4] was 76% and the EC50 [5] was 235 nM.

Compound CCNCc1cncc(-c2cnc3[nH]nc(-c4cc5c(-c6cc(F)cc(CNS(C)(=O)=O)c6)nccc5[nH]4)c3c2)c1 [Compound 482, N-(3-(2-(5-(5-((Ethylamino)methyl)pyridin-3-yl)-1H-pyrazolo[3,4-b]pyridin-3-yl)-1H-pyrrolo[3,2-c]pyridin-4-yl)-5-fluorobenzyl)methanesulfonamide] has an EC50 [1] greater than 10000 nM, an inhibition at 10 µM [1] of 16.6% and an EC50 [2] greater than 10000 nM. The inhibition at 10 µM [2] was 0%, the inhibition at 10 µM [3] was 8.8% and the EC50 [3] was greater than 10000 nM. It also gave an EC50 [4] of 300 nM, an Emax [4] of 61% and an EC50 [5] of 2240 nM.

CC(C)CC(=O)Nc1cncc(-c2cnc3[nH]nc(-c4cc5c(-c6cc(F)cc(CNS(C)(=O)=O)c6)nccc5[nH]4)c3c2)c1 [Compound 478, N-(5-(3-(4-(3-Fluoro-5-(methylsulfonamidomethyl)phenyl)-1H-pyrrolo[3,2-c]pyridin-2-yl)-1H-pyrazolo[3,4-b]pyridin-5-yl)pyridin-3-yl)-3-methylbutanamide] gave an EC50 [1] of 4090 nM, an EC50 [2] greater than 10000 nM and an inhibition at 10 µM [2] of 0%. For the same compound, the EC50 [3] was 1960 nM, the EC50 [4] was 300 nM and the Emax [4] was 52%. The EC50 [5] was 537 nM.

CC(C)Nc1cncc(-c2cnc3[nH]nc(-c4cc5c(-c6cc(F)cc(CNS(C)(=O)=O)c6)nccc5[nH]4)c3c2)c1 [Compound 488, N-(3-Fluoro-5-(2-(5-(5-(isopropylamino)pyridin-3-yl)-1H-pyrazolo[3,4-b]pyridin-3-yl)-1H-pyrrolo[3,2-c]pyridin-4-yl)benzyl)methanesulfonamide] showed an EC50 [1] of 1340 nM, an EC50 [2] of 860 nM and an EC50 [3] of 486 nM. It also gave an EC50 [4] of 100 nM, an Emax [4] of 66% and an EC50 [5] greater than 10000 nM. For the same compound, the inhibition at 10 µM [5] was 54.6%.

In the case of O=C(Nc1cncc(-c2cnc3[nH]nc(-c4cc5c(-c6ccccc6F)nccc5[nH]4)c3c2)c1)c1ccccc1 [Compound 67, N-(5-(3-(4-(2-Fluorophenyl)-1H-pyrrolo[3,2-c]pyridin-2-yl)-1H-pyrazolo[3,4-b]pyridin-5-yl)pyridin-3-yl)benzamide], the EC50 [1] is reported as 1620 nM, the EC50 [2] is reported as greater than 10000 nM and the inhibition at 10 µM [2] is reported as 6.3%. The EC50 [3] was 1980 nM, the EC50 [4] was 10 nM and the Emax [4] was 101%. The EC50 [5] was greater than 10000 nM and the inhibition at 10 µM [5] was 41.4%.

CC(C)(C)CC(=O)Nc1cncc(-c2cnc3[nH]nc(-c4cc5c(N6CCCCC6)nccc5[nH]4)c3c2)c1 [Compound 184, 3,3-Dimethyl-N-(5-(3-(4-(piperidin-1-yl)-1H-pyrrolo[3,2-c]pyridin-2-yl)-1H-pyrazolo[3,4-b]pyridin-5-yl)pyridin-3-yl)butanamide] was tested, and the EC50 [1] was 1430 nM, the EC50 [2] was 773 nM and the EC50 [3] was 1330 nM. It also gave an Emax [4] of 84% and an EC50 [5] of 2260 nM.

With c1cc(-c2cnc3[nH]nc(-c4cc5c(N6CCCCC6)nccc5[nH]4)c3c2)ccn1 [Compound 186, 3-(4-(Piperidin-1-yl)-1H-pyrrolo[3,2-c]pyridin-2-yl)-5-(pyridin-4-yl)-1H-pyrazolo[3,4-b]pyridine] the EC50 [1] was greater than 10000 nM, the inhibition at 10 µM [1] was 11.1% and the EC50 [2] was greater than 10000 nM. It also gave an inhibition at 10 µM [2] of 0%, an inhibition at 10 µM [3] of 30.8% and an EC50 [3] greater than 10000 nM. It also gave an EC50 [5] greater than 10000 nM and an inhibition at 10 µM [5] of 25.4%.

CN(C)c1cncc(-c2cnc3[nH]nc(-c4cc5c(-c6cccnc6)nccc5[nH]4)c3c2)c1 [Compound 91, N,N-Dimethyl-5-(3-(4-(pyridin-3-yl)-1H-pyrrolo[3,2-c]pyridin-2-yl)-1H-pyrazolo[3,4-b]pyridin-5-yl)pyridin-3-amine] showed an EC50 [1] greater than 10000 nM, an inhibition at 10 µM [1] of 3% and an EC50 [2] of 6980 nM. For the same compound, the inhibition at 10 µM [3] was 41.6%, the EC50 [3] was greater than 10000 nM and the EC50 [5] was greater than 10000 nM. For the same compound, the inhibition at 10 µM [5] was 32.3%.

Cc1ccncc1-c1cnc2[nH]nc(-c3cc4c(-c5cccs5)nccc4[nH]3)c2c1 [Compound 341, 5-(4-Methylpyridin-3-yl)-3-(4-(thiophen-2-yl)-1H-pyrrolo[3,2-c]pyridin-2-yl)-1H-pyrazolo[3,4-b]pyridine] was tested, and the EC50 [1] was 1080 nM, the EC50 [2] was 330 nM and the EC50 [3] was 1650 nM. The EC50 [5] was 5110 nM.

In the case of CC(C)(C)C(=O)Nc1cncc(-c2cnc3[nH]nc(-c4cc5c(N6CCCCC6)nccc5[nH]4)c3c2)c1 [Compound 176, N-(5-(3-(4-(Piperidin-1-yl)-1H-pyrrolo[3,2-c]pyridin-2-yl)-1H-pyrazolo[3,4-b]pyridin-5-yl)pyridin-3-yl)pivalamide], the EC50 [1] is reported as greater than 10000 nM, the inhibition at 10 µM [1] is reported as 5.2% and the EC50 [2] is reported as greater than 10000 nM. For the same compound, the inhibition at 10 µM [2] was 28.2%, the inhibition at 10 µM [3] was 18.2% and the EC50 [3] was greater than 10000 nM. The EC50 [5] was greater than 10000 nM and the inhibition at 10 µM [5] was 25.9%.

Fc1cccc(-c2nccc3[nH]c(-c4n[nH]c5ncc(-c6ccccn6)cc45)cc23)c1 [Compound 28, 3-(4-(3-Fluorophenyl)-1H-pyrrolo[3,2-c]pyridin-2-yl)-5-(pyridin-2-yl)-1H-pyrazolo[3,4-b]pyridine] was tested, and the EC50 [1] was 519 nM, the EC50 [2] was 752 nM and the EC50 [3] was 1290 nM. It also gave an EC50 [5] of 3460 nM.
